31 compounds from patent US5776903A, “Peptide derivatives usable as zinc endopeptidase 24-15 inhibitors” (Commissariat A l'Energie Atomique, priority 1995, dated 1998) can be followed below.

The Ki is the dissociation constant of the complex between target and ligand, obtained from inhibition or displacement. A low value points to tighter binding.

The target of one assay is endopeptidase 24-16 (Homo sapiens, UniProt Q9BYT8). Briefly: Inhibition of neurotensin degradation by purified endopeptidase 24-16 (HPLC), inhibition constant Ki. Format: biochemical. As to conditions: neurotensin 20 μmole/l, 1 hour at 30° C., tris-HCl pH 7.5. On the procedure:
This example studies the inhibiting effect of the peptides of the invention with respect to endopeptidase 24-16.
To this end, incubation takes place for 1 hour at 30° C. of 2 nmole (20 μmole/l) of neurotensin, which is a known endopeptidase 24-16 substrate with 8 μg of endopeptidase 24-16 purified in a final volume of 100 μl of tris-HCl buffer, 50 mM, pH 7.5, in the absence of peptide (control) or in the presence of the peptide tested at concentrations from 10^-11 to 10^-7 mole/l. After 1 hour of incubation analysis takes place of the solutions by HPLC and the inhibition constant Ki of the tested peptide is determined.

The target of another assay is endopeptidase 24-15 (Rattus norvegicus, UniProt P24155). Briefly: Inhibition of neurotensin degradation by purified endopeptidase 24-15 (HPLC), inhibition constant Ki. The conditions noted are these: for SELECTIVITY (ratio Ki24-16 /Ki24-15): selectivity relative to endopeptidase 24-16.
Chain of endopeptidase 24-15 (P24155 whole entry): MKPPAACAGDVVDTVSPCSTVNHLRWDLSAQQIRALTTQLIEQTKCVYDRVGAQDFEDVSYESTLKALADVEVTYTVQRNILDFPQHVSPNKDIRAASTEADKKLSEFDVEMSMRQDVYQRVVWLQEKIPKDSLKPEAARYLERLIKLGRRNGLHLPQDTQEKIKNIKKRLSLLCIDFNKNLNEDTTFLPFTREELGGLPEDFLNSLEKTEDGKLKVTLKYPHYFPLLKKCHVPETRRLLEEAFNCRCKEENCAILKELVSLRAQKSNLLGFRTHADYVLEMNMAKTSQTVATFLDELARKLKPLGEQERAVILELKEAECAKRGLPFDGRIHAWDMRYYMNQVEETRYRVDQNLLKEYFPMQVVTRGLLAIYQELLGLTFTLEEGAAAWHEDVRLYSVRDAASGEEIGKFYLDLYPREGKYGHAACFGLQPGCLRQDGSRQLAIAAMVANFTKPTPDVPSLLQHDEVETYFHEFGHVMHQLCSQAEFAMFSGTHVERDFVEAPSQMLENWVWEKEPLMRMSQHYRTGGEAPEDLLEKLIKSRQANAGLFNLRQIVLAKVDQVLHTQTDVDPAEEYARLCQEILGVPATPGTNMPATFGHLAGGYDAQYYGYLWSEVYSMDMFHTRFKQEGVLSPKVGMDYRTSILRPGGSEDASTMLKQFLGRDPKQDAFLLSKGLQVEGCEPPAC

Chain of endopeptidase 24-16 (Q9BYT8 38-704): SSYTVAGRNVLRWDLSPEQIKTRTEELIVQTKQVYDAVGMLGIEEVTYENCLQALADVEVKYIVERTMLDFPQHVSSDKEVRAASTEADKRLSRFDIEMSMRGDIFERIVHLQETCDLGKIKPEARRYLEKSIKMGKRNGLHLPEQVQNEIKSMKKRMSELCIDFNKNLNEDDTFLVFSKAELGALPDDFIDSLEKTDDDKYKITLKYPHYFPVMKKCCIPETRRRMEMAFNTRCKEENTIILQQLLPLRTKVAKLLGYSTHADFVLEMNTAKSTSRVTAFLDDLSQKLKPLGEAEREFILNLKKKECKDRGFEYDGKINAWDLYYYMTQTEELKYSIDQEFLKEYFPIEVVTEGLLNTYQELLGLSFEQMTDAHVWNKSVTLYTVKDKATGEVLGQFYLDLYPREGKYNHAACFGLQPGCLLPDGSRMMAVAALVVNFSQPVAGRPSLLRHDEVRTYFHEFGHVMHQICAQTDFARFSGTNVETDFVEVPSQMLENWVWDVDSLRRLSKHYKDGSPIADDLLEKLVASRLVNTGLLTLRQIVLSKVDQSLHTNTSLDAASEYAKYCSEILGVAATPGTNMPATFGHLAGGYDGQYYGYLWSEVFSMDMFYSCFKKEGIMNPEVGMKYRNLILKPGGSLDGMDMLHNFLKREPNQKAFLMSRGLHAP
Procedure for endopeptidase 24-15: Incubation takes place for 1 hour at 37° C. of 2 nmole (20 μmole/l) of neurotensin, which is a known endopeptidase 24-15 substrate, with 7 μg of purified endopeptidase 24-15 in a final volume of 100 μl of tris-HCl buffer, 50 nM, pH 7.5, in the absence of an inhibitor (control) or in the presence of the peptide tested at concentrations from 10^-11 to 10^-7 mole/l. After 1 hour incubation analysis takes place of the solutions by HPLC. On the basis of this analysis the inhibition constant Ki of the tested peptide is determined.

The compound `CSCC[C@H](NC(=O)[C@H](CCCNC(=N)N)NC(=O)CCP(=O)(O)C(Cc1ccccc1)NC(=O)OCc1ccccc1)C(=O)O` (mixture of isomers) [compound 1, Z--Phe .PSI. (PO2 CH2)Gly--Arg--Met] yielded a Ki on endopeptidase 24-16 of 132 nM. For the same compound, at endopeptidase 24-15, the affinity corresponds to a Ki of 0.35 nM and the “SELECTIVITY (ratio Ki24-16 /Ki24-15)” value stood at 377.
Regarding `CCCC[C@H](NC(=O)[C@H](CCCNC(=N)N)NC(=O)CCP(=O)(O)C(Cc1ccccc1)NC(=O)OCc1ccccc1)C(=O)O` (mixture of isomers) [compound 2, Z--Phe .PSI. (PO2 CH2)Gly--Arg--Nle], the inhibition constant (Ki) on endopeptidase 24-16 came out at 213 nM. Besides, on endopeptidase 24-15, the inhibition constant (Ki) is 1.6 nM and the “SELECTIVITY (ratio Ki24-16 /Ki24-15)” value is on record as 135.
With `C[C@H](NC(=O)[C@H](CCCNC(=N)N)NC(=O)CCP(=O)(O)C(Cc1ccccc1)NC(=O)OCc1ccccc1)C(=O)O` (mixture of isomers) [compound 3, Z--Phe .PSI. (PO2 CH2)Gly--Arg--Ala], the Ki at endopeptidase 24-16 came to 201 nM. Besides, at endopeptidase 24-15, the affinity, expressed as Ki, was 2.2 nM and the “SELECTIVITY (ratio Ki24-16 /Ki24-15)” value was determined as 91.
Take `N=C(N)NCCC[C@H](NC(=O)CCP(=O)(O)C(Cc1ccccc1)NC(=O)OCc1ccccc1)C(=O)N[C@@H](Cc1ccccc1)C(=O)O` (mixture of isomers) [compound 4, Z--Phe .PSI. (PO2 CH2)Gly--Arg--Phe]: the Ki at endopeptidase 24-16 was determined as 1100 nM; on endopeptidase 24-15, 2.7 nM. In addition, the “SELECTIVITY (ratio Ki24-16 /Ki24-15)” value on endopeptidase 24-15 is listed as 409.
For `N=C(N)NCCC[C@H](NC(=O)CCP(=O)(O)C(Cc1ccccc1)NC(=O)OCc1ccccc1)C(=O)N[C@@H](Cc1ccc(O)cc1)C(=O)O` (mixture of isomers) [compound 5, Z--Phe .PSI. (PO2 CH2)Gly--Arg--Tyr] the same measures were 596 nM, 3.6 nM and 165.
For `CC(C)C[C@H](NC(=O)[C@H](CCCNC(=N)N)NC(=O)CCP(=O)(O)C(Cc1ccccc1)NC(=O)OCc1ccccc1)C(=O)O` (mixture of isomers) [compound 6, Z--Phe .PSI. (PO2 CH2)Gly--Arg--Leu] the same measures were 846 nM, 5 nM and 169.
For `N=C(N)NCCC[C@H](NC(=O)CCP(=O)(O)C(Cc1ccccc1)NC(=O)OCc1ccccc1)C(=O)N[C@@H](CCC(N)=O)C(=O)O` (mixture of isomers) [compound 7, Z--Phe .PSI. (PO2 CH2)Gly--Arg--Gln] the same measures were 690 nM, 6.1 nM and 113.
Compound `CC(C)[C@H](NC(=O)[C@H](CCCNC(=N)N)NC(=O)CCP(=O)(O)C(Cc1ccccc1)NC(=O)OCc1ccccc1)C(=O)O` (mixture of isomers) [compound 8, Z--Phe .PSI. (PO2 CH2)Gly--Arg--Val] displayed a Ki on endopeptidase 24-16 of 1130 nM. At endopeptidase 24-15, affinity was put at a Ki of 9.3 nM and the “SELECTIVITY (ratio Ki24-16 /Ki24-15)” value stood at 121.
In the case of `CC[C@H](C)[C@H](NC(=O)[C@H](CCCNC(=N)N)NC(=O)CCP(=O)(O)C(Cc1ccccc1)NC(=O)OCc1ccccc1)C(=O)O` (mixture of isomers) [compound 9, Z--Phe .PSI. (PO2 CH2)Gly--Arg--Ile], the Ki at endopeptidase 24-16 turned out to be 589 nM; on endopeptidase 24-15, 9.6 nM. The “SELECTIVITY (ratio Ki24-16 /Ki24-15)” value on endopeptidase 24-15 is 61.
The like results for `N=C(N)NCCC[C@H](NC(=O)CCP(=O)(O)C(Cc1ccccc1)NC(=O)OCc1ccccc1)C(=O)N[C@@H](Cc1c[nH]c2ccccc12)C(=O)O` (mixture of isomers) [compound 10, Z--Phe .PSI. (PO2 CH2)Gly--Arg--Trp] were, in that order, 2660 nM, 13.1 nM and 203.
The like results for `N=C(N)NCCC[C@H](NC(=O)CCP(=O)(O)C(Cc1ccccc1)NC(=O)OCc1ccccc1)C(=O)NCC(=O)O` (mixture of isomers) [compound 11, Z--Phe .PSI. (PO2 CH2)Gly--Arg--Gly] were, in that order, 1660 nM, 13.8 nM and 120.
The like results for `N=C(N)NCCC[C@H](NC(=O)[C@H](CCCNC(=N)N)NC(=O)CCP(=O)(O)C(Cc1ccccc1)NC(=O)OCc1ccccc1)C(=O)O` (mixture of isomers) [compound 12, Z--Phe .PSI. (PO2 CH2)Gly--Arg--Arg] were, in that order, 2040 nM, 14 nM and 145.
On to `N=C(N)NCCC[C@H](NC(=O)CCP(=O)(O)C(Cc1ccccc1)NC(=O)OCc1ccccc1)C(=O)N[C@@H](CC(N)=O)C(=O)O` (mixture of isomers) [compound 13, Z--Phe .PSI. (PO2 CH2)Gly--Arg--Asn], for which the Ki at endopeptidase 24-16 came to 1380 nM; at endopeptidase 24-15 it was 19.5 nM. Further, the “SELECTIVITY (ratio Ki24-16 /Ki24-15)” value on endopeptidase 24-15 turned out to be 71.
The like results for `N=C(N)NCCC[C@H](NC(=O)CCP(=O)(O)C(Cc1ccccc1)NC(=O)OCc1ccccc1)C(=O)N[C@@H](Cc1c[nH]cn1)C(=O)O` (mixture of isomers) [compound 14, Z--Phe .PSI. (PO2 CH2)Gly--Arg--His] were, in that order, 3010 nM, 23.2 nM and 129.
The like results for `C[C@@H](O)[C@H](NC(=O)[C@H](CCCNC(=N)N)NC(=O)CCP(=O)(O)C(Cc1ccccc1)NC(=O)OCc1ccccc1)C(=O)O` (mixture of isomers) [compound 17, Z--Phe .PSI. (PO2 CH2)Gly--Arg--Thr] were, in that order, 3640 nM, 35.2 nM and 103.
Consider `N=C(N)NCCC[C@H](NC(=O)CCP(=O)(O)C(Cc1ccccc1)NC(=O)OCc1ccccc1)C(=O)N[C@@H](CCCCN)C(=O)O` (mixture of isomers) [compound 18, Z--Phe .PSI. (PO2 CH2)Gly--Arg--Lys], for which the Ki on endopeptidase 24-16 amounted to 25700 nM. Besides, on endopeptidase 24-15, the Ki was found to be 138 nM and the “SELECTIVITY (ratio Ki24-16 /Ki24-15)” value worked out at 186.
Regarding `N=C(N)NCCC[C@H](NC(=O)CCP(=O)(O)C(Cc1ccccc1)NC(=O)OCc1ccccc1)C(=O)N[C@@H](CCC(=O)O)C(=O)O` (mixture of isomers) [compound 19, Z--Phe .PSI. (PO2 CH2)Gly--Arg--Glu], the results for the Ki on endopeptidase 24-16 and on endopeptidase 24-15 were 8150 nM and 163 nM, respectively. Further, at endopeptidase 24-15, the “SELECTIVITY (ratio Ki24-16 /Ki24-15)” value turned out to be 50.
At endopeptidase 24-15, `CC(CP(=O)(O)C(Cc1ccccc1)NC(=O)OCc1ccccc1)C(=O)N[C@@H](CCCCN)C(=O)N[C@@H](CCC(N)=O)C(=O)O` (mixture of isomers) [compound 28, Z--Phe .PSI. (PO2 CH2)Ala--Lys--Gln] registered a Ki of 2.18 nM.
In turn, `CC(CP(=O)(O)C(Cc1ccccc1)NC(=O)OCc1ccccc1)C(=O)N[C@@H](CCCCN)C(=O)N[C@@H](Cc1ccc(O)cc1)C(=O)O` (mixture of isomers) [compound 29, Z--Phe .PSI. (PO2 CH2)Ala--Lys--Tyr] showed an inhibition constant Ki on endopeptidase 24-15 of 2.3 nM.
Same read-out and setting: the result for `CC(CP(=O)(O)C(Cc1ccccc1)NC(=O)OCc1ccccc1)C(=O)N[C@@H](CCCCN)C(=O)N[C@H](C(=O)O)C(C)C` (mixture of isomers) [compound 30, Z--Phe .PSI. (PO2 CH2)Ala--Lys--Val] reads 2.6 nM; that for `CC(CP(=O)(O)C(Cc1ccccc1)NC(=O)OCc1ccccc1)C(=O)N[C@@H](CCCCN)C(=O)N[C@@H](CCCNC(=N)N)C(=O)O` (mixture of isomers) [compound 31, Z--Phe .PSI. (PO2 CH2)Ala--Lys--Arg], 3.17 nM; that for `CC(CP(=O)(O)C(Cc1ccccc1)NC(=O)OCc1ccccc1)C(=O)N[C@@H](CCCCN)C(=O)N[C@@H](CC(N)=O)C(=O)O` (mixture of isomers) [compound 32, Z--Phe .PSI. (PO2 CH2)Ala--Lys--Asn], 4.9 nM.
Same read-out and setting: the result for `CC(CP(=O)(O)C(Cc1ccccc1)NC(=O)OCc1ccccc1)C(=O)N[C@@H](CCCCN)C(=O)NCC(=O)O` (mixture of isomers) [compound 33, Z--Phe .PSI. (PO2 CH2)Ala--Lys--Gly] reads 5.1 nM; that for `CC(CP(=O)(O)C(Cc1ccccc1)NC(=O)OCc1ccccc1)C(=O)N[C@@H](CCCCN)C(=O)N[C@@H](Cc1c[nH]c2ccccc12)C(=O)O` (mixture of isomers) [compound 34, Z--Phe .PSI. (PO2 CH2)Ala--Lys--Trp], 5.78 nM.
On endopeptidase 24-15, `CC(CP(=O)(O)C(Cc1ccccc1)NC(=O)OCc1ccccc1)C(=O)N[C@@H](CCCCN)C(=O)N[C@@H](Cc1c[nH]cn1)C(=O)O` (mixture of isomers) [compound 35, Z--Phe .PSI. (PO2 CH2)Ala--Lys--His] had a Ki of 7.13 nM.
`CC(CP(=O)(O)C(Cc1ccccc1)NC(=O)OCc1ccccc1)C(=O)N[C@@H](CCCCN)C(=O)N[C@H](C(=O)O)[C@@H](C)O` (mixture of isomers) [compound 36, Z--Phe .PSI. (PO2 CH2)Ala--Lys--Thr] registered a Ki on endopeptidase 24-15 of 10.1 nM. This Ki and that of the compound before are within 1.5-fold of each other.
Turning to `CC(CP(=O)(O)C(Cc1ccccc1)NC(=O)OCc1ccccc1)C(=O)N[C@@H](CCCCN)C(=O)N[C@@H](CO)C(=O)O` (mixture of isomers) [compound 37, Z--Phe .PSI. (PO2 CH2)Ala--Lys--Ser], on endopeptidase 24-15, the affinity corresponds to a Ki of 11.9 nM.
The compound `CC(CP(=O)(O)C(Cc1ccccc1)NC(=O)OCc1ccccc1)C(=O)N[C@@H](CCCCN)C(=O)N[C@@H](CCCCN)C(=O)O` (mixture of isomers) [compound 38, Z--Phe .PSI. (PO2 CH2)ASla--Lys--Lys] yielded a Ki on endopeptidase 24-15 of 26.9 nM.
Same read-out and setting: for `CC(CP(=O)(O)C(Cc1ccccc1)NC(=O)OCc1ccccc1)C(=O)N[C@@H](CCCCN)C(=O)N[C@@H](CCC(=O)O)C(=O)O` (mixture of isomers) [compound 39, Z--Phe .PSI. (PO2 CH2)Ala--Lys--Glu] the value was 53.5 nM.
For the compound `CC(CP(=O)(O)C(Cc1ccccc1)NC(=O)OCc1ccccc1)C(=O)N[C@@H](CCCCN)C(=O)N[C@@H](CC(=O)O)C(=O)O` (mixture of isomers) [compound 40, Z--Phe .PSI. (PO2 CH2)Ala--Lys--Asp], the Ki on endopeptidase 24-15 was determined as 109 nM.
On the same count and under the same terms, for `CC(CP(=O)(O)C(Cc1ccccc1)NC(=O)OCc1ccccc1)C(=O)N[C@@H](CCCCN)C(=O)N1CCC[C@H]1C(=O)O` (mixture of isomers) [compound 41, Z--Phe .PSI. (PO2 CH2)Ala--Lys--Pro] the value was 1030 nM.
